Results from PubChem BioAssay AID248 (DTP/NCI, 2004).
“And” between values parts separate entries of the source, which are not always exact repeats. Equal entries are not always repeated. Inconclusive results and toxic doses are left out. No stated cut-off is given here; in the data, active means T/C of 150% or more; inactive means T/C below 125%.

Test system: L1210 leukemia ip in BDF1 mice, survival T/C
Test: NCI In Vivo Anticancer Drug Screen. Data for tumor model L1210 Leukemia (intraperitoneal) in B6D2F1 (BDF1) mice
Settings: endpoint: mean survival time, higher = longer survival
Outline: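 Survival endpoint. Drug-treated group vs vehicle group, expressed as T divided by C. Tumor passaged by transplantation.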

[1] = dose: 100.0 mg/kg/injection, schedule: Q01DX009 (ip), vehicle: Klucel (hydroxypropylcellulose) (HPC)
[2] = dose: 200.0 mg/kg/injection, schedule: Q01DX009 (ip), vehicle: Klucel (hydroxypropylcellulose) (HPC)
[3] = dose: 100.0 mg/kg/injection, schedule: Q04DX003 (ip), vehicle: saline with Tween-80
[4] = dose: 200.0 mg/kg/injection, schedule: Q04DX003 (ip), vehicle: saline with Tween-80
[5] = dose: 400.0 mg/kg/injection, schedule: Q04DX003 (ip), vehicle: saline with Tween-80

Measured: T/C

CCOC1=CCN(S(=O)(=O)c2ccc(C)cc2)c2ccc(OC)cc21
inactive: [1] 100 % of control | dose: 100.0 mg/kg/injection, schedule: Q04DX003 (ip), vehicle: Klucel (hydroxypropylcellulose) (HPC) 104 % of control | [2] 96 % of control | dose: 200.0 mg/kg/injection, schedule: Q04DX003 (ip), vehicle: Klucel (hydroxypropylcellulose) (HPC) 94 % of control | dose: 400.0 mg/kg/injection, schedule: Q01DX009 (ip), vehicle: Klucel (hydroxypropylcellulose) (HPC) 89 % of control | dose: 400.0 mg/kg/injection, schedule: Q04DX003 (ip), vehicle: Klucel (hydroxypropylcellulose) (HPC) 98 % of control

Cc1cc2c(cc1C)/C(=N\O)CCCC2
inactive: [3] 110 % of control | [4] 92 % of control | [5] 94 % of control

CCCCCCOc1ccc(C=Nc2ccc(C(=O)OCC)cc2)cc1
inactive: dose: 50.0 mg/kg/injection, schedule: Q01DX009 (ip), vehicle: Klucel (hydroxypropylcellulose) (HPC) 96 % of control | [1] 97 % of control | [2] 97 % of control

O=C(NCCCl)NC1CCCC(O)C1 (centres undefined)
inactive: dose: 100.0 mg/kg/injection, schedule: Q01DX001 (ip), vehicle: saline 101 % of control | dose: 200.0 mg/kg/injection, schedule: Q01DX001 (ip), vehicle: saline 101 % of control | dose: 400.0 mg/kg/injection, schedule: Q01DX001 (ip), vehicle: saline 93 % of control

CC[C@@H](C(=O)[C@@H](C)[C@@H](O)[C@H](C)CCc1ccc(C)c(O)c1C(=O)O)[C@H]1O[C@](CC)([C@H]2CC[C@](O)(CC)[C@H](C)O2)C[C@@H]1C
inactive: dose: 3.12 mg/kg/injection, schedule: Q01DX009 (ip), vehicle: Klucel (hydroxypropylcellulose) (HPC) 93 % of control | dose: 6.25 mg/kg/injection, schedule: Q01DX009 (ip), vehicle: Klucel (hydroxypropylcellulose) (HPC) 96 % of control | dose: 12.5 mg/kg/injection, schedule: Q01DX009 (ip), vehicle: Klucel (hydroxypropylcellulose) (HPC) 94 % of control | dose: 25.0 mg/kg/injection, schedule: Q01DX009 (ip), vehicle: Klucel (hydroxypropylcellulose) (HPC) 94 % of control

NC(N)=N/N=C(\C=C\C=C(c1ccc(Cl)cc1)c1ccc(Cl)cc1)c1ccc(Cl)cc1
inactive: dose: 12.5 mg/kg/injection, schedule: Q04DX003 (ip), vehicle: saline 95 % of control | dose: 25.0 mg/kg/injection, schedule: Q04DX003 (ip), vehicle: saline 95 % of control | dose: 50.0 mg/kg/injection, schedule: Q04DX003 (ip), vehicle: saline 91 % of control

Cc1ncc(/C=N/O)n1Cc1ccccc1
inactive: dose: 100.0 mg/kg/injection, schedule: Q01DX001 (ip), vehicle: other 97 % of control and 90 % of control | dose: 100.0 mg/kg/injection, schedule: Q04DX002 (ip), vehicle: Klucel (hydroxypropylcellulose) (HPC) 98 % of control | dose: 100.0 mg/kg/injection, schedule: Q04DX002 (ip), vehicle: other 94 % of control and 96 % of control | dose: 100.0 mg/kg/injection, schedule: Q04DX003 (ip), vehicle: other 97 % of control | dose: 200.0 mg/kg/injection, schedule: Q01DX001 (ip), vehicle: other 94 % of control and 97 % of control | dose: 200.0 mg/kg/injection, schedule: Q04DX002 (ip), vehicle: Klucel (hydroxypropylcellulose) (HPC) 94 % of control | dose: 200.0 mg/kg/injection, schedule: Q04DX002 (ip), vehicle: other 99 % of control and 105 % of control | dose: 200.0 mg/kg/injection, schedule: Q04DX003 (ip), vehicle: other 97 % of control and 100 % of control | dose: 400.0 mg/kg/injection, schedule: Q01DX001 (ip), vehicle: other 93 % of control and 91 % of control | dose: 400.0 mg/kg/injection, schedule: Q04DX002 (ip), vehicle: Klucel (hydroxypropylcellulose) (HPC) 105 % of control | dose: 400.0 mg/kg/injection, schedule: Q04DX002 (ip), vehicle: other 99 % of control and 92 % of control | dose: 400.0 mg/kg/injection, schedule: Q04DX003 (ip), vehicle: other 89 % of control and 90 % of control

C#CCOCC1CNC(=S)O1 (centres undefined)
inactive: dose: 100.0 mg/kg/injection, schedule: Q01DX009 (ip), vehicle: saline with Tween-80 100 % of control | [3] 95 % of control | dose: 200.0 mg/kg/injection, schedule: Q01DX009 (ip), vehicle: saline with Tween-80 98 % of control | [4] 111 % of control | dose: 400.0 mg/kg/injection, schedule: Q01DX009 (ip), vehicle: saline with Tween-80 96 % of control | [5] 97 % of control

COc1cc(Br)c(CC2c3cc(OCc4ccccc4)c(OC)cc3CCN2C)cc1OC (centres undefined)
inactive: dose: 100.0 mg/kg/injection, schedule: Q04DX003 (ip), vehicle: acetone 112 % of control

CCC(C)C(CCN(C)CC)(CNC(=O)CN(CC)CC)c1cccc2ccccc12 (centres undefined)
inactive: dose: 50.0 mg/kg/injection, schedule: Q04DX002 (ip), vehicle: saline 106 % of control | dose: 100.0 mg/kg/injection, schedule: Q01DX009 (ip), vehicle: saline 96 % of control | dose: 100.0 mg/kg/injection, schedule: Q04DX002 (ip), vehicle: saline 97 % of control
